Results: patent publication US6193967A, “Bispecific reagents for redirected targeting of human lipoproteins” (priority 1997, dated 2001)

Tested on: monocytes
Test: Uptake of bispecific LDL*-IC by monocytes (flow cytometry of cell-associated fluorescence)
Type: cell-based, human
Conditions: monocytes at 37° C., bispecific LDL*-IC (anti-FcγRII×anti-LDL plus BODIPY-LDL); antioxidant concentration not given
Experimental: All experiments were done under sterile conditions. For each experiment, bispecific LDL immune complexes (bispecific LDL*-IC) were freshly prepared by combining 4 μg/ml of LDL* with heteroantibodies in eppendorf tubes in monocyte culture medium (without serum or unlabeled LDL unless otherwise indicated), and incubating for one hour at room temperature, prior to adding cells in RPMI 1640 plus 10% FCS. That concentration of LDL* was chosen because it gave a satisfactory signal to noise ratio. In all experiments, a control consisting of LDL* alone was set up by substituting medium for heteroantibody. The final volume of bispecific complexes prior to addition of cells was […]; […] of cells at 1×10^7 /ml were added for a final volume of […]. The tubes were then mixed by gentle pipetting, and incubated at 4° C. or 37° C. as indicated. Final mAb or heteroantibody concentrations are shown in each figure; the final concentration of LDL* in all preparations was 1.33 μg/ml unless otherwise indicated. […]
In all experiments, cells were removed after various times of incubation and washed twice with one ml of PBS at room temperature. […] For cytofluorogaphic analysis, samples were analyzed for green fluorescence on a FACScan (Becton-Dickinson). The excitation wavelength was 488 nm and emission at 515 nm was analyzed. […]

Cc1cc(C(C)(C)C)c(O)c(C(C)(C)C)c1 [butylated hydroxytoluene]
effect on the response to bispecific LDL*-IC (uptake by monocytes): had no effect
